# According to patent US5225607A, “Insecticidal ethers” (Imperial Chemical Industries PLC, priority 1985, dated 1993):
# What was measured:
# Assay type in all cases: in vivo
# [1] = test system: Blattella germanica; assay: Insecticidal test, Blattella germanica (cockroach nymphs), residual; conditions: 72 h, plastic pot, 3 days, read-out: grading of mortality, BG
# Method: (§1) The activity of the Product was determined using a variety of insect and acarine pests. The Product was used in the form of liquid preparations containing 500, 250 or 100 parts per million (ppm) by weight of the Product. The preparations were made by dissolving the Product in acetone and diluting the solutions with water containing 0.01% by weight of a wetting agent sold under the trade name "LISSAPOL" NX until the liquid preparations contained the required concentratio of the Product. "Lissapol" is a Registered Trade Mark.
# (§2) The test procedure adopted with regard to each pest was basically the same and comprised supporting a number of the pests on a medium which was usually a host plant or a foodstuff on which the pests feed, and treating either or both the pests and the medium with the preparations. The mortality of the pests was then assessed at periods usually varying from one to three days after the treatment.
# (§3) The results of the tests are given in Table IV for each of the Products, at the rate in parts per million given in the second column as a grading of mortality designated as A, B or C wherein A indicates 80-100% mortality or knockdown (70-100% in the case of Spodoptera exigua), B indicates 50-79% mortality or knockdown (50-69% in the case of Spodoptera exigua) and C indicates less than 50% mortality or knockdown.
# (§4) In Table IV the pest organism used is designated by a letter code and the pest species, the support medium or food, and the type and duration of test is given in Table III.
# [2] = test system: Myzus persicae; assay: Insecticidal test, Myzus persicae (aphids), contact; conditions: 72 h, Chinese Cabbage leaf, 3 days, read-out: grading of mortality, MP
# Method: as §1, §2, §3, §4
# [3] = test system: Heliothis virescens; assay: whole plant or invertebrate; conditions: in Gossypium hirsutum, 72 h, read-out: grading of mortality, HV
# Method: as §1, §2, §3, §4
# [4] = test system: Tetranychus urticae; assay: Insecticidal/acaricidal test, Tetranychus urticae (spider mites - adult), contact; conditions: 72 h, French bean leaf, 3 days, read-out: grading of mortality, TU
# Method: as §1, §2, §3, §4
# [5] = test system: Nilaparvata lugens; assay: Insecticidal test, Nilaparvata lugens (brown planthopper), contact; conditions: 72 h, Cabbage leaf, 3 days, read-out: grading of mortality, NL
# Method: as §1, §2, §3, §4
# [6] = test system: Musca domestica; assay: Knockdown test, Musca domestica (houseflies - adults); conditions: cotton wool/sugar, 4 hours, read-out: grading of knockdown, MD/KD
# Method: as §1, §2
# In the case of the species Musca domestica (housefly), additional tests to determine the knockdown effect of the compounds were performed.
# as §3, §4
# [7] = test system: Diabrotica balteata; assay: Insecticidal test, Diabrotica balteata (rootworm larvae), residual; conditions: 72 h, filter paper/maize seed, 3 days, read-out: grading of mortality, DB
# Method: as §1, §2, §3, §4
# [8] = test system: Musca domestica; assay: Insecticidal test, Musca domestica (houseflies - adults), contact; conditions: 24 h, cotton wool/sugar, 1 day, read-out: grading of mortality, MD
# Method: as §1, §2, §3, §4
SMILES,mortality at 100 ppm [1] [%],mortality at 100 ppm [2] [%],mortality at 100 ppm [3] [%],mortality at 100 ppm [4] [%],mortality at 100 ppm [5] [%],pest or weed control at 100 ppm [6] [%],mortality at 100 ppm [7] [%],mortality at 100 ppm [8] [%],mortality at 500 ppm [1] [%],mortality at 500 ppm [2] [%],mortality at 500 ppm [3] [%],mortality at 500 ppm [4] [%],mortality at 500 ppm [5] [%],pest or weed control at 500 ppm [6] [%],mortality at 500 ppm [7] [%],mortality at 500 ppm [8] [%],also measured
"CCOc1ccc(C(COCc2cccc(Oc3ccc(Cl)cc3)c2)C(F)(F)F)cc1 (stereo not shown) [Compound 3, 1,1,1-Trifluoro-2-(4-ethoxyphenyl)-3-(3-(4-chlorophenoxy)benzyloxy)propane]",,,,,,,,,,,,,,,,,mortality at 250 ppm ([1]; 250 ppm): 80 to 100%; mortality at 250 ppm ([2]; 250 ppm): 80 to 100%; mortality at 250 ppm [3]: < 50%; mortality at 250 ppm ([4]; 250 ppm): < 50%; mortality at 250 ppm ([5]; 250 ppm): 80 to 100%; pest or weed control at 250 ppm ([6]; 250 ppm): 80 to 100%; mortality at 250 ppm ([7]; 250 ppm): 80 to 100%; mortality at 250 ppm ([8]; 250 ppm): 80 to 100%
"COc1ccc(C(COCc2ccc(F)c(Oc3ccccc3)c2)C(F)(F)F)cc1 (stereo not shown) [Compound 29, 1,1,1-Trifluoro-2-(4-methoxyphenyl)-3-(3-phenoxy-4-fluorobenzyloxy)propane]",80 to 100,80 to 100,80 to 100,< 50,80 to 100,80 to 100,80 to 100,80 to 100,,,,,,,,,
"CCOc1ccc(C(O)(COCc2ccc(F)c(Oc3ccc(Cl)cc3)c2)C(F)(F)F)cc1 (stereo not shown) [Compound 117, 1,1,1-Trifluoro-2-(4-ethoxyphenyl)-3-(3-(4-chlorophenoxy)-4-fluorobenzyloxy)propan-2-ol]",,,,,,,,,< 50,< 50,< 50,< 50,< 50,80 to 100,< 50,50 to 79,
"CCOc1ccc(C(COCc2ccc(F)c(Oc3ccccc3)c2)C(F)(F)F)cc1 (stereo not shown) [Compound 33, 1,1,1-Trifluoro-2-(4-ethoxyphenyl)-3-(3-phenoxy-4-fluorobenzyloxy)propane]",,,,,,,,,80 to 100,80 to 100,80 to 100,80 to 100,80 to 100,80 to 100,80 to 100,80 to 100,
"CCOc1ccc(C(F)(COCc2cccc(-c3ccccc3)c2C)C(F)(F)F)cc1 (stereo not shown) [Compound 80, 1,1,1,2-Tetrafluoro-2-(4-ethoxyphenyl)-3-(2-methyl-3-phenylbenzyloxy)propane]",,,,,,,,,80 to 100,80 to 100,< 50,< 50,80 to 100,80 to 100,80 to 100,80 to 100,
"CCCc1ccc(C(COCc2ccc(F)c(Oc3ccccc3)c2)C(F)(F)F)cc1 (stereo not shown) [Compound 20, 1,1,1-Trifluoro-2-(4-n-propylphenyl)-3-(3-phenoxy-4-fluorobenzyloxy)propane]",80 to 100,80 to 100,80 to 100,80 to 100,80 to 100,80 to 100,80 to 100,80 to 100,,,,,,,,,
"FC(F)(F)Oc1ccc(C(COCc2cccc(Oc3ccc(Cl)cc3)c2)C(F)(F)F)cc1 (stereo not shown) [Compound 26, 1,1,1-Trifluoro-2-(4-trifluoromethoxyphenyl)-3-(3-(4-chlorophenoxy)benzyloxy)propane]",80 to 100,50 to 79,80 to 100,80 to 100,80 to 100,80 to 100,80 to 100,80 to 100,,,,,,,,,
"COc1ccc(C(COCc2cccc(Oc3ccccc3)c2)C(F)(F)F)cc1 (stereo not shown) [Compound 30, 1,1,1-Trifluoro-2-(4-methoxyphenyl)-3-(3-phenoxybenzyloxy)propane]",,,,,,,,,80 to 100,< 50,80 to 100,< 50,80 to 100,80 to 100,80 to 100,80 to 100,
